Results from patent US10548894B2, “Combination therapy” (Array BioPharma Inc., priority 2013, dated 2020).

What was measured:
[1] = system: WM-266-4 cells expressing mutant MEK1C121S; assay: Microscopy imaging assay (viable nuclei count), 72 h; format: cell-based; details: Homo sapiens, WM-266-4 MEK1C121S, single agent
Method: (§1) Compound stocks are prepared in DMSO at a final concentration of 10 mM. Working stocks are serially diluted in the appropriate cell culture medium in 3-fold increments to achieve final assay concentrations ranging from 2.7 μM to 1.2 nM.
(§2) A-375 and WM-266-4 cells were purchased from American Type Culture Collection (ATCC). The A-375 cells were cultured in DMEM medium (ATCC) and the WM-266-4 cells were cultured in EMEM medium (ATCC) both supplemented with 10% fetal bovine serum (Gibco) and incubated at 37° C./5% CO2. The cell lines engineered to express commonly occurring alleles indicative of resistance were acquired from Novartis-Emeryville. These resistant models include, A-375 cells expressing mutant MEK1P124L, truncated p61-BRAFV600E, or mutant NRASQ61K, and WM-266-4 cells expressing mutant MEK1C121S, truncated p61-BRAFV600E, or mutant NRASQ61K. These cells were cultured in the appropriate parental medium with selection marker G418 and in the presence of 5 uM LFE158 (MEK mutants) or LIH720 (truncated p61-BRAFV600E).
(§3) For screening, cells were seeded in 80 ul of medium in 384-well plates (Thermo Scientific, cat#4332) at 500 (A-375) or 750 (WM-266-4) cell densities per well using a MultiDrop Combi (Thermo-Fisher) with an 8-channel standard cassette. To promote an even distribution of cells across the entire well, cells were briefly centrifuged at 1000 RPM and incubated at room temperature 30 minutes. All plates were incubated at 37° C., 5% CO2 for 24 h prior to compound addition. Compound stock was freshly prepared in the appropriate culture medium, and added using a PAA robot equipped with a 200n1 pin tool. In a minimum of three replicate wells, single agent and combination effects after 72 hours, were assessed by both quantification of cellular ATP levels via Cell Titer Glo (Promega) according to the manufacturer's protocol and by microscopy imaging. For imaging, cells were fixed to the plates and permeabilized with a solution of 10% PFA, 0.3% TX-100 in PBS via a WellMate dispenser with controlled dispensing speeds. Cell nuclei were stained with Hoechst 33342 (H3570, Invitrogen), and all necessary washing steps were performed by a BioTek washer.
(§4) An automated image analysis pipeline was established using custom-made scripts in the open-source, statistical programming language R, and functions of the BioConductor package EBImage. The goal was to quantify the number of viable nuclei (cells) per well as an approximation for cell viability. The pipeline was comprised of seven steps: (I.) smoothing of the image to reduce the number of intensity peaks, (II.) application of a thresholding function to separate the foreground (signal) from the background (noise), (III.) identification of local maxima in the foreground that serve as seeds for the nuclei, (IV.) filtering of local maxima in close proximity, (V.) propagation of the nuclei from remaining local maxima, (VI.) and extraction of object features from the propagated nuclei (numbers of nuclei, size features and intensity features). As a last step (VII.), to exclude debris (e.g. fragmented nuclei) from counting, objects identified in DMSO- and Staurosporin-treated wells were used to obtain feature distributions for viable and fragmented nuclei, respectively. These were used to set cut-offs differentiating between viable and fragmented nuclei. The number of fragmented nuclei was subtracted from the total number of identified objects and the result was reported as final count for that well.
(§5) Data comprised triplicate measurements for each treatment (compound) condition, 42 replicates of DMSO-treated wells, and duplicates of Staurosporin-treated wells. The data was normalized to the median of the DMSO measurements and summarized by calculating the median of the triplicates. Data was imported into Chalice to calculate compound synergies.

[2] = system: A-375 cells expressing mutant NRASQ61K; assay: as above; format: cell-based; details: Homo sapiens, A-375 NRASQ61K, single agent
Method: as §1, §2, §3, §4, §5

A-375 cells [3] = assay: as above; format: cell-based; details: Homo sapiens, A-375 parent, single agent
Method: as §1, §2, §3, §4, §5

[4] = system: A-375 cells expressing mutant MEK1P124L; assay: as above; format: cell-based; details: Homo sapiens, A-375 MEK1P124L, single agent
Method: as §1, §2, §3, §4, §5

WM-266-4 cells [5] = assay: as above; format: cell-based; details: Homo sapiens, WM-266-4 parent, single agent
Method: as §1, §2, §3, §4, §5

[6] = Clinical dose finding and tolerability (RP2D/MTD) in patients; format: in vivo; details: for MTD: QD
From the text: The selection of the starting dose follows the ICH S9 guidelines for choosing a starting a dose for a first-in-human trial conducted in patients with cancer, and is shown in Table 6-2.
Table 3 describes the starting doses and the provisional dose levels of study treatments for the combinations that may be evaluated during this trial. Additional dose levels not currently specified may be enrolled and additional patients may be enrolled at a dose level already tested if such changes are deemed necessary to provide optimal safety and tolerability, pharmacokinetic, and pharmacodynamic data.

[7] = system: WM-266-4 cells expressing mutant MEK1C121S; assay: ATP-based CTG (Cell Titer Glo) cell viability assay, 72 h; details: Homo sapiens, WM-266-4 MEK1C121S, single agent
Method: as §1, §2, §3, §5

[8] = system: A-375 cells expressing mutant NRASQ61K; assay: as above; details: Homo sapiens, A-375 NRASQ61K, single agent
Method: as §1, §2, §3, §5

A-375 cells [9] = assay: as above; details: Homo sapiens, A-375 parent, single agent
Method: as §1, §2, §3, §5

[10] = system: A-375 cells expressing mutant MEK1P124L; assay: as above; details: Homo sapiens, A-375 MEK1P124L, single agent
Method: as §1, §2, §3, §5

WM-266-4 cells [11] = assay: as above; details: Homo sapiens, WM-266-4 parent, single agent
Method: as §1, §2, §3, §5

[12] = system: HMEX1906 primary melanoma model (HMEX1906-R5); assay: Efficacy in HMEX1906-R5 primary melanoma model resistant to Compound of Formula (I); format: in vivo; details: PO; Compound C 250 mg/kg qd×21; Compound of Formula (I) 5 mg/kg bid×21
Method: Objective: To evaluate the efficacy of the combination of the Compound of Formula (I) and the CDK 4 inhibitor Compound C in the HMEX1906 primary melanoma model that is grown in the presence of and is resistant to 5 mg/kg the Compound of Formula (I) (HMEX1906-R5)
Drug formulation: Compound C is formulated in 0.5% MC/0.5% Tween80 and the Compound of Formula (I) is formulated in 20% PEG300/3% ETPGS.
Tumors are chopped/minced into cell line like suspension (tumors homogenized). 7 mL of matrigel added and 1.5 mL of HBSS. Suspension warmed in palm until Matrigel is thick and implanted with a 18G needle s.c right flank of female nude mice.
The mice were assigned to the following groups at 18 days post implant with an average tumor volume of 266 mm^3 and average body weight of 25 grams.
Groups: 10 mice/group, route PO, dose volume 0.2 mL
Group 1: Vehicle, 0 mg/kg bid×14
Group 2: Compound C, 250 mg/kg qd×21
Group 3: Compound of Formula (I), 5 mg/kg bid×21
Group 4: Compound C 250 mg/kg qd×21+Compound of Formula (I) 5 mg/kg bid×21

[13] = system: MAPK and PIK3C signaling in COLO 741 cells; assay: Western analysis of phosphorylated MEK1/2, ERK1/2 and AKT; format: cell-based; details: COLO 741, 2 and 24 hours, no FGF2; Formula (I) 100 nM, Compound H 1.0 uM
Method: (§6) FIG. 4—The effect on signaling of combining the Compound of Formula (I) with the FGFR inhibitor Compound H and the FGFR ligand FGF2 in two BRAFV600E mutant melanoma-derived cell lines in vitro. Shown is western analysis of both phosphorylated and total AKT, ERK1/2, and MEK1/2 proteins isolated from (A) […] and (B) SK-MEL-5 cells following treatment with the Compound of Formula (I) (100 nM), FGF2 (100 ng/ml), and Compound H (1 uM). Cells were treated for 2 and 24 hours with agents singly and in combination as discussed in Example 5.
(§7) For Western analysis, cells were plated in 6-well (Costar, catalog number 3506) plates at a density of 5×10^5 cells per well in 2.0 ml of complete culture medium. Twelve to 24 hrs after plating, cells were treated with the various compounds, and in all experiments the Compound of Formula (I), Compound H, and FGF2 were used at final concentrations of 100 nM, 1.0 uM, and 100 ng/ml, respectively. Cells were harvested 2, and 24 hrs following the addition of compound in freshly prepared cell lysis buffer (Cell Signaling Technology Catalog number 9803); supplemented with both phosphatase (PhosStop, Roche Catalog number 04906845001) and protease inhibitors (Roche, catalog number 11697498001). Proteins from cell lysates were separated by electrophoresis though a NuPAGE 4-12% Bis-Tis midi gel (Novex, catalog number WG1402BX10), transferred to nitrocellulose membranes, which were subsequently incubated with antibodies from Cell Signaling Technology (Danvers, Mass., USA) recognizing p-AKT (S473, Catalog number 4058), total AKT (Catalog number 2920), p-ERK1/2 (T202/Y204, catalog number 9101), total ERK1/2 (catalog number 9107), p-MEK1/2 (S217/221, catalog number 9121) and β-actin (Ambion, catalog number AM4302). Western blots were visualized following incubation with IRDye 680RD Goat anti-Rabbit IgG (Li-Cor, Catalog number 926-68071) and IRDye 800 CW Goat anti-Mouse IgG (Li-Cor, Catalog number 926-32210) and scanning with an Odyssey Infrared Imager System (Li-Cor, Lincoln, Nebr., USA).
(§8) To investigate whether either restored MAPK or activated PIK3C signaling might underlie FGF2-mediated rescue the effects of FGF2 on MAPK and PIK3C signaling were examined via western-blot analysis of phosphorylated MEK1/2 (MAP2K1/2), ERK1/2 (MAPK1/2) and AKT1/2/3.

[14] = system: MAPK and PIK3C signaling in SK-MEL-5 cells; assay: as above; format: cell-based; details: SK-MEL-5, 2 and 24 hours, no FGF2; Formula (I) 100 nM, Compound H 1.0 uM
Method: as §6, §7, §8

COLO 741 = assay: xCELLigence real-time impedance growth assay; format: cell-based; details: COLO 741, absence of FGF2; Formula (I) 500 nM, Compound H 1 uM
Method: (§9) Shown is the growth in real time of the (Top A) COLO 741 and (Bottom B) SK-MEL-5 cell lines as measured using the xCELLigence impedance-based cell analyzer as discussed in Example 5. Where indicated FGF2 and Compound H were supplemented to the media at concentrations of 100 ng/ml, and 1 uM, respectively. The Compound of Formula (I) was used at 500 nM in (A) and 100 nM (B).
(§10) For CellTiter-Glo™ assays, cells were dispensed into tissue culture treated 96-well plates (Costar, catalog number 3904) with a final volume of 80 μL of medium and at density of 3000 cells per well. 12 to 24 hrs after plating, 20 μL of each compound dilution series were transferred to plates containing the cells, resulting in compound concentration ranges of 2700 nM to 3.7 nM by 3-fold dilutions and a final DMSO concentration of 0.16%. The total volume in each well was […]. Plates were incubated for 72 hrs and the effects of compounds on cell proliferation was determined using the CellTiter-Glo™ Luminescent Cell Viability Assay (CTG, Promega) and a Victor™ X4 plate reader (Perkin Elmer). For real-time growth assays cells were seeded into xCELLigence E-plates (Roche catalogue number 05232368001) at a density of 4000 cells per well in a total of 90 μl of media and 24 hrs after plating, 11 μl of media with or without compound was added to the wells. 2-4 replicate wells were plated for all cell lines and treatment groups with the exception of LGX818+FGF2 treated COLO 741 cells (N=1). Where indicated final concentrations of compounds and growth factor were 1 uM for Compound H, 100 ng/ml for FGF2, and either 100 nM (SK-MEL-5) or 500 nM (COLO 741) for the Compound of Formula (I). Cells were continuously monitored every two hours for seven days with the xCELLigence real-time impedance based cell analyzer. Impedance was measured using the electrodes on the E-plates, with increasing surface area coverage of cells creating greater electrode impedance. […] In all cases cell index values were normalized to a timepoint immediately following the addition of compound.
(§11) To determine whether rescue of BRAFV600E melanoma cell lines by FGF2 was dependent on FGFR signaling, we examined whether the selective FGFR inhibitor Compound H could prevent FGF2-mediated rescue. Two cell lines which were rescued to varying degrees by FGF2 (COLO 741, and SK-MEL-5, Table 8-1) were cultured in media containing the Compound of Formula (I) and FGF2 either in the presence or absence of Compound H and growth measured in real time.

SK-MEL-5 = assay: xCELLigence real-time impedance growth assay; format: cell-based; details: SK-MEL-5, absence of FGF2; Formula (I) 100 nM, Compound H 1 uM
Method: as §9, §10, §11

Cn1cnc2c(F)c(Nc3ccc(Br)cc3F)c(C(=O)NOCCO)cc21 [Compound B]
IC50 [1]: 1210 nM
IC50 [2]: 150 nM
IC50 (A-375 cells [3]): 57 nM
IC50 [4]: > 2700 nM
IC50 (WM-266-4 cells [5]): 77 nM
RP2D ([6]; BID, in combination with B-Raf inhibitor of Formula (I) 600 mg): 45 mg
IC50 [7]: 821 nM
IC50 [8]: 206 nM
IC50 (A-375 cells [9]): 51 nM
IC50 [10]: > 2700 nM
IC50 (WM-266-4 cells [11]): 50 nM

CN(C)C(=O)c1cc2cnc(Nc3ccc(N4CCNCC4)cn3)nc2n1C1CCCC1 [Compound C]
maximum tolerated dose (MTD) ([6]; currently tested at the 900 mg QD dose level): has not been achieved
Mean change of body weight [12]: 5.3 ± 1.4 % ± SEM
Mean change of tumor volume [12]: 86 ± 26 mm3 ± SEM
Mean change of tumor volume vs control (T/C) [12]: 4%
Survival (Survivors/Total) [12]: 10/10

Nc1cc(C(F)(F)F)c(-c2cc(N3CCOCC3)nc(N3CCOCC3)n2)cn1 [Compound F, 5-(2,6-di-morpholin-4-yl-pyrimidin-4-yl)-4-trifluoromethyl-pyridin-2-ylamine]
MTD [6]: 100 mg

CCN1CCN(c2ccc(Nc3cc(N(C)C(=O)Nc4c(Cl)c(OC)cc(OC)c4Cl)ncn3)cc2)CC1 [Compound H]
MTD [6]: 125 mg
MAPK signaling (phosphorylated MEK and ERK levels) [13]: neither FGF2 nor Compound H when added as single agents affected signaling
MAPK signaling (phosphorylated MEK and ERK levels) [14]: neither FGF2 nor Compound H when added as single agents affected signaling
growth in real time (cell index) (COLO 741): did not affect the proliferation
growth in real time (cell index) (SK-MEL-5): did not affect the proliferation
